# Laboratory results reported in patent US11198741B2, “Medicines for topic use based on sulfated hyaluronic acid as activating or inhibiting agent of the cytokine activity” (Fidia Farmaceutici S.p.A., priority 2009, dated 2021).
# Columns and labels:
# [1] = test system: Herpes Simplex Virus-2 (HSV-2: G, 196 and Lyons strain); assay: Inhibition of viral cytopathogenicity in E6SM fibroblast cells, HSV-2; assay type: cell-based; conditions: 2nd day of incubation, numbers only in FIG. 10
# IL-12 = assay: Protein synthesis of IL-12 in human PBMC (SearchLight array); conditions: not stimulated or stimulated with LPS or PHA (10 μg/ml), 24 hours, FIG. 8: 1 mg/ml, vs HA
# Description: For these experimentations, mononucleate cells of human peripheral blood (PBMC) were adopted, deriving from various donors for evaluating the effect of HAS on the production of the cytokines listed above, using:
# The separation of the PBMC (Bøyum A., Scand J Clin Lab Invest 21 Suppl, 1968, 97:77-89) was effected using the product Ficoll-Paque PLUS (GE Healthcare) and following the protocol indicated by the supplier. At day zero 100,000 cells were plated per well (using plates with 96 wells) in 200 μl of medium RPMI 1640, to which 10% of fetal bovine serum, HEPES 10 mM, Glutamine 2 mM, 1% Penicillin-Streptomycin 100 U/ml, had been added. […] The cells were treated separately with the three compounds at a concentration of 0.1 mg/ml or 1 mg/ml. After 24 hours of incubation at 37° C. (5% CO2), 100 μl of supernatant were taken from each well in order to analyze the production of IL-2, IL-7, IL-10 and IL-12.
# The quantification of the inflammation mediators was effected by means of the SearchLight® technology, using a Custom Human 9-flex Array plate following the protocol indicated by the supplier in the technical card.
# fibrin clot = biological target: T1, fibrin clot (Homo sapiens, UniProt P02671+P02675+P02679); assay: In vitro fibrinolytic activity: dissolution of fibrin clot in coagulated plasma (absorbance at 405 nm); assay type: biochemical; conditions: 37° C.
# T1 sequence (P02671 20-644 isoform P02671-2 limits assumed): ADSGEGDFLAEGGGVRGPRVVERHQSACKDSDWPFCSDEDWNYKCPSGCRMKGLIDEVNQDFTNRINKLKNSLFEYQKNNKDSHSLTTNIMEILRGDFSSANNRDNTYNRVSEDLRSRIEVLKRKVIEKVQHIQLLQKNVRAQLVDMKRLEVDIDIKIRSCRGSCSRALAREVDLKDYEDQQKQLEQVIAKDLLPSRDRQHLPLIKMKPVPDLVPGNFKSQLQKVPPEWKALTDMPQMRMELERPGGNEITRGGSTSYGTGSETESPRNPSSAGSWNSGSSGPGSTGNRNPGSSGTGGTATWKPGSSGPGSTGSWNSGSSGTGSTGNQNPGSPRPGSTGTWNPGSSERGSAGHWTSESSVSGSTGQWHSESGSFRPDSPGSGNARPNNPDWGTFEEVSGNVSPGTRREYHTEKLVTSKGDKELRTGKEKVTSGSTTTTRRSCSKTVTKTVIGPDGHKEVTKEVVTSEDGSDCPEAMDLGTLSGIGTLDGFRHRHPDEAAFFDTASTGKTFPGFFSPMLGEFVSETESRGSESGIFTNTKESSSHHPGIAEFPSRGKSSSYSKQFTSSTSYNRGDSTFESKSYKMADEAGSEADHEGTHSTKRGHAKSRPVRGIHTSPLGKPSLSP
# T1 sequence (P02675 45-491 limits assumed): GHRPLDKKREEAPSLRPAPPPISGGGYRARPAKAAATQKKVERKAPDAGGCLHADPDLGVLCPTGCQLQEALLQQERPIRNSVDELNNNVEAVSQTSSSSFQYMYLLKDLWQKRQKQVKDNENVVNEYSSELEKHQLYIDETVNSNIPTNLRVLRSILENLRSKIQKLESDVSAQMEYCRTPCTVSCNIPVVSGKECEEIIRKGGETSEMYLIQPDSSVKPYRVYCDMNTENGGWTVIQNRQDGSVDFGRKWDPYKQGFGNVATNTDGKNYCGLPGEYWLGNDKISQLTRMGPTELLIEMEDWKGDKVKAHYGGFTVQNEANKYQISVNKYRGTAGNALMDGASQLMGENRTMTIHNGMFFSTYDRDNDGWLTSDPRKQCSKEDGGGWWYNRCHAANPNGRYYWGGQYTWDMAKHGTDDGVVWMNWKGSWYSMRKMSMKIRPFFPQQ
# T1 sequence (P02679 27-437 isoform P02679-2 limits assumed): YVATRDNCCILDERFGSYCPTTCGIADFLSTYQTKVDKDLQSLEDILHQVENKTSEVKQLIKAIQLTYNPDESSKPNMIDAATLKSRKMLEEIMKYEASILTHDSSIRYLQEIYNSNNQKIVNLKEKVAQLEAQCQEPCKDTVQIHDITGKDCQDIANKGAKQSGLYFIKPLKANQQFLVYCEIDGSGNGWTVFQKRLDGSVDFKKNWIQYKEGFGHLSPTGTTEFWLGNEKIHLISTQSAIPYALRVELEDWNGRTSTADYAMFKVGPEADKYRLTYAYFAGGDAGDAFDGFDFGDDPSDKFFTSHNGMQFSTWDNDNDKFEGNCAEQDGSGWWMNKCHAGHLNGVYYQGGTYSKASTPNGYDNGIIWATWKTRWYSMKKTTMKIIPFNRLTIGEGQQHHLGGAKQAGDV
# Description: The evaluation of the fibrinolytic properties of the products subjected to the test was compared with the acknowledged fibrinolytic activity of the plasmin. In particular, the dissolution rate of the fibrin network and formation of soluble products of the fibrin degradation (FDP), was evaluated.
# In order to test the fibrinolytic effectiveness of the products subjected to testing, the blood samples were distributed in various test-tubes in which the clot formation was induced.
# The formation of FDP was then evaluated after the addition of:
# The freshly removed blood samples were distributed in various test-tubes containing sodium citrate in a ratio of 9:1. The test-tubes were immediately centrifuged at 3,000 rpm for 5 minutes. The plasma obtained was transferred to a new test-tube and immediately used for effecting the FDP evaluation.
# Thrombin (300 mU/ml), preheated to 37° C. was added to the plasma samples, as activator of the fibrinogen in inducing the formation of the clot.
# The following were added to the different cuvettes containing the fibrin clot:
# a plasmin solution 0.5 mU, 5 mU, 50 mU, 500 mU and 1 U
# solutions of HAS3 at concentrations of 25 mg/ml, 50 mg/ml, 100 mg/ml, 150 mg/ml and 200 mg/ml.
# The absorbance variation at 405 nm for 60 sec. was evaluated spectrophotometrically for each cuvette. The reaction was left to proceed until the complete dissolution of the clot.
# Coagulated plasma, plasmin solution and a solution of HAS3 200 KD and HAS3 20 KD were mixed in a ratio of 1:1 v/v and maintained at an operating temperature of 37° C.
substance,measurement,setting,value
sulfated hyaluronic acid degree 3 [HAS3],antiviral activity (inhibition of the cytopathogenicity of the virus) vs HSV-2,[1],powerful antiviral action
same,synthesis of IL-12,IL-12,significantly reducing
same,fibrinolytic activity (expressed in mU equivalents of Plasmin),fibrin clot; 25 mg/ml,0.5 mU
same,fibrinolytic activity (expressed in mU equivalents of Plasmin),fibrin clot; 50 mg/ml,3 mU
same,fibrinolytic activity (expressed in mU equivalents of Plasmin),fibrin clot; 100 mg/ml,10 mU
same,fibrinolytic activity (expressed in mU equivalents of Plasmin),fibrin clot; 150 mg/ml,50 mU
same,fibrinolytic activity (expressed in equivalents of Plasmin),fibrin clot; 200 mg/ml,1.1 U
